# Reference: paper PMC6364417, “Kinase inhibitor library screening identifies synergistic drug combinations effective in sensitive and resistant melanoma cells” (Journal of Experimental & Clinical Cancer Research : CR, 2019)
# What was measured:
# Assay in all cases: Kinase inhibitor library screening, PrestoBlue cell viability, 1 or 10 μM, 72 h
# [1] = tested on: 501Mel cells (parental); settings: 72 h; for Cell viability in kinase inhibitor library screening, 501Mel Parental, 1μΜ / Cell viability in kinase inhibitor library screening, 501Mel Parental, 10μΜ: in %; for Cell viability in kinase inhibitor library screening, 501Mel Parental, 1μΜ / Cell viability in kinase inhibitor library screening, 501Mel Parental, 10μΜ / cell viability (kinase inhibitor library screening): 501Mel Parental
# Description: (§1) After 72 h of treatment, cell viability was assessed using the PrestoBlue Cell Viability Reagent (ThermoFisher Scientific). Measurements were performed with the CLARIOstar Monochromator microplate reader (BMG Labtech).
# (§2) Kinase inhibitor library screening. […] Each cell line was treated in its sensitive form (parental), and also as 2 resistant derivatives, which were made resistant to either Vemurafenib (XP) or Dabrafenib (GP). Drugs were added at 2 different concentrations, 1 and 10 μM, for 72 h and cell viability was assessed using the PrestoBlue Cell Viability assay. Results are depicted as % viability compared to untreated cells. Each cell line was analyzed at least in duplicate. […] (XLSX 95 kb)
# [2] = tested on: IGR37 cells (parental)
# Description: as §1, §2
# [3] = tested on: A375-XP cells (Vemurafenib-resistant); settings: for Cell viability in kinase inhibitor library screening, A375 XP, 1μΜ / Cell viability in kinase inhibitor library screening, A375 XP, 10μΜ / cell viability (kinase inhibitor library screening): 72 h, A375 XP
# Description: as §1, §2
# [4] = tested on: A375 cells (parental); settings: for Cell viability in kinase inhibitor library screening, A375 Parental, 10μΜ / Cell viability in kinase inhibitor library screening, A375 Parental, 1μΜ / cell viability (kinase inhibitor library screening): 72 h, A375 Parental
# Description: as §1, §2
# [5] = tested on: IGR37-GP cells (Dabrafenib-resistant); settings: for Cell viability in kinase inhibitor library screening, IGR37 GP, 10μΜ / Cell viability in kinase inhibitor library screening, IGR37 GP, 1μΜ / cell viability (kinase inhibitor library screening): 72 h, IGR37 GP; for Cell viability in kinase inhibitor library screening, IGR37 GP, 1μΜ: in %
# Description: as §1, §2
# [6] = tested on: 501Mel-GP cells (Dabrafenib-resistant); settings: 72 h
# Description: as §1, §2
# [7] = tested on: 501Mel-XP cells (Vemurafenib-resistant); settings: 72 h; for Cell viability in kinase inhibitor library screening, 501Mel XP, 1μΜ / Cell viability in kinase inhibitor library screening, 501Mel XP, 10μΜ: in %; for Cell viability in kinase inhibitor library screening, 501Mel XP, 1μΜ / Cell viability in kinase inhibitor library screening, 501Mel XP, 10μΜ / cell viability (kinase inhibitor library screening): 501Mel XP
# Description: as §1, §2
# [8] = tested on: IGR37-XP cells (Vemurafenib-resistant); settings: for Cell viability in kinase inhibitor library screening, IGR37 XP, 10μΜ / Cell viability in kinase inhibitor library screening, IGR37 XP, 1μΜ / cell viability (kinase inhibitor library screening): 72 h, IGR37 XP; for Cell viability in kinase inhibitor library screening, IGR37 XP, 1μΜ: in %
# Description: as §1, §2
# [9] = tested on: A375-GP cells (Dabrafenib-resistant); settings: for Cell viability in kinase inhibitor library screening, A375 GP, 1μΜ / Cell viability in kinase inhibitor library screening, A375 GP, 10μΜ / cell viability (kinase inhibitor library screening): 72 h, A375 GP
# Description: as §1, §2
# [10] = IGR37 Parental, 10μΜ, 72 h, in %
smiles,measurement,setting,value
Cc1ccc(NC(=O)c2cccc(C(C)(C)C#N)c2)cc1Nc1ccc2ncn(C)c(=O)c2c1 [AZ628],"Cell viability in kinase inhibitor library screening, 501Mel Parental, 1μΜ",[1]; 1μΜ,59.7
same,"Cell viability in kinase inhibitor library screening, 501Mel Parental, 10μΜ",[1]; 10μΜ,64.1
same,"Cell viability in kinase inhibitor library screening, IGR37 Parental, 1μΜ","[2]; IGR37 Parental, 1μΜ, 72 h, in %",45.5
same,"Cell viability in kinase inhibitor library screening, IGR37 Parental, 10μΜ",[2]; [10],41.8
same,"Cell viability in kinase inhibitor library screening, A375 XP, 1μΜ",[3]; 1μΜ,20.4
same,"Cell viability in kinase inhibitor library screening, A375 XP, 10μΜ",[3]; 10μΜ,13.2
same,"Cell viability in kinase inhibitor library screening, A375 Parental, 10μΜ",[4]; 10μΜ,23.0
same,"Cell viability in kinase inhibitor library screening, A375 Parental, 1μΜ",[4]; 1μΜ,26.2
same,"Cell viability in kinase inhibitor library screening, IGR37 GP, 10μΜ",[5]; 10μΜ,55.7%
same,"Cell viability in kinase inhibitor library screening, IGR37 GP, 1μΜ",[5]; 1μΜ,78.8
same,"Cell viability in kinase inhibitor library screening, 501Mel GP, 10μΜ","[6]; 501Mel GP, 10μΜ, in %",83.3
same,"Cell viability in kinase inhibitor library screening, 501Mel XP, 1μΜ",[7]; 1μΜ,116.3
same,"Cell viability in kinase inhibitor library screening, 501Mel XP, 10μΜ",[7]; 10μΜ,79.0
same,"Cell viability in kinase inhibitor library screening, IGR37 XP, 10μΜ",[8]; 10μΜ,15.2%
same,"Cell viability in kinase inhibitor library screening, IGR37 XP, 1μΜ",[8]; 1μΜ,60.5
same,"Cell viability in kinase inhibitor library screening, A375 GP, 1μΜ",[9]; 1μΜ,19.6
same,"Cell viability in kinase inhibitor library screening, A375 GP, 10μΜ",[9]; 10μΜ,21.0
Cc1cc(Nc2nc(N[C@@H](C)c3ccc(F)cc3)c(C#N)cc2F)[nH]n1 [AZ 960],viability at 1 µM,"[1]; Homo sapiens, read-out: cell viability, 501Mel Parental, 1μΜ",49.1%
same,viability at 10 µM,"[1]; Homo sapiens, read-out: cell viability, 501Mel Parental, 10μΜ",65.1%
same,viability at 1 µM,"[2]; Homo sapiens, IGR-37, 72 h, read-out: cell viability, IGR37 Parental, 1μΜ",83.9%
same,viability at 10 µM,"[2]; Homo sapiens, IGR-37, 72 h, read-out: cell viability, IGR37 Parental, 10μΜ",90.7%
same,viability at 1 µM,"[3]; Homo sapiens, A-375, 72 h, read-out: cell viability, A375 XP, 1μΜ",61.3%
same,viability at 10 µM,"[3]; Homo sapiens, A-375, 72 h, read-out: cell viability, A375 XP, 10μΜ",46.1%
same,viability at 1 µM,"[4]; Homo sapiens, A-375, 72 h, read-out: cell viability, A375 Parental, 1μΜ",48.9%
same,viability at 10 µM,"[4]; Homo sapiens, A-375, 72 h, read-out: cell viability, A375 Parental, 10μΜ",40%
same,viability at 1 µM,"[5]; Homo sapiens, IGR-37, 72 h, read-out: cell viability, IGR37 GP, 1μΜ",87.2%
same,viability at 10 µM,"[5]; Homo sapiens, IGR-37, 72 h, read-out: cell viability, IGR37 GP, 10μΜ",73.9%
same,viability at 1 µM,"[6]; Homo sapiens, read-out: cell viability, 501Mel GP, 1μΜ",34.2%
same,viability at 10 µM,"[6]; Homo sapiens, read-out: cell viability, 501Mel GP, 10μΜ",66.8%
same,viability at 1 µM,"[7]; Homo sapiens, read-out: cell viability, 501Mel XP, 1μΜ",39.4%
same,viability at 10 µM,"[7]; Homo sapiens, read-out: cell viability, 501Mel XP, 10μΜ",60.4%
same,viability at 1 µM,"[8]; Homo sapiens, IGR-37, 72 h, read-out: cell viability, IGR37 XP, 1μΜ",81.1%
same,viability at 10 µM,"[8]; Homo sapiens, IGR-37, 72 h, read-out: cell viability, IGR37 XP, 10μΜ",39.7%
same,viability at 1 µM,"[9]; Homo sapiens, A-375, 72 h, read-out: cell viability, A375 GP, 1μΜ",44%
same,viability at 10 µM,"[9]; Homo sapiens, A-375, 72 h, read-out: cell viability, A375 GP, 10μΜ",37.8%
CNC(=O)c1cccc(-c2ccc3c(N4CCOC[C@@H]4C)nc(N4CCOC[C@@H]4C)nc3n2)c1 [AZD2014],"Cell viability in kinase inhibitor library screening, 501Mel Parental, 1μΜ",[1]; 1μΜ,39.4
same,"Cell viability in kinase inhibitor library screening, 501Mel Parental, 10μΜ",[1]; 10μΜ,8.5
same,"Cell viability in kinase inhibitor library screening, IGR37 Parental, 10μΜ",[2]; [10],12.3
same,"Cell viability in kinase inhibitor library screening, A375 XP, 1μΜ",[3]; 1μΜ,29.1
same,"Cell viability in kinase inhibitor library screening, A375 XP, 10μΜ",[3]; 10μΜ,19.4
same,"Cell viability in kinase inhibitor library screening, A375 Parental, 10μΜ",[4]; 10μΜ,21.1
same,"Cell viability in kinase inhibitor library screening, A375 Parental, 1μΜ",[4]; 1μΜ,34.9
same,"Cell viability in kinase inhibitor library screening, IGR37 GP, 10μΜ",[5]; 10μΜ,28.2%
same,"Cell viability in kinase inhibitor library screening, IGR37 GP, 1μΜ",[5]; 1μΜ,63.5
same,"Cell viability in kinase inhibitor library screening, 501Mel GP, 1μΜ","[6]; 501Mel GP, 1μΜ, in %",28.3
same,"Cell viability in kinase inhibitor library screening, 501Mel GP, 10μΜ","[6]; 501Mel GP, 10μΜ, in %",9.6
same,"Cell viability in kinase inhibitor library screening, 501Mel XP, 1μΜ",[7]; 1μΜ,21.8
same,"Cell viability in kinase inhibitor library screening, 501Mel XP, 10μΜ",[7]; 10μΜ,3.5
same,"Cell viability in kinase inhibitor library screening, IGR37 XP, 10μΜ",[8]; 10μΜ,9.4%
same,"Cell viability in kinase inhibitor library screening, IGR37 XP, 1μΜ",[8]; 1μΜ,49.7
same,"Cell viability in kinase inhibitor library screening, A375 GP, 1μΜ",[9]; 1μΜ,33.7
same,"Cell viability in kinase inhibitor library screening, A375 GP, 10μΜ",[9]; 10μΜ,19.6
Cc1ncc(-c2ccnc(Nc3ccc(S(C)(=O)=O)cc3)n2)n1C(C)C [AZD5438],cell viability (kinase inhibitor library screening),[1]; 1μΜ,102.8%
same,cell viability (kinase inhibitor library screening),[1]; 10μΜ,103.6%
same,cell viability (kinase inhibitor library screening),"[2]; IGR37 Parental, 1μΜ, 72 h",103.3%
same,cell viability (kinase inhibitor library screening),"[2]; IGR37 Parental, 10μΜ, 72 h",110.8%
same,cell viability (kinase inhibitor library screening),[3]; 1μΜ,105.8%
same,cell viability (kinase inhibitor library screening),[3]; 10μΜ,110.3%
same,cell viability (kinase inhibitor library screening),[4]; 10μΜ,103.7%
same,cell viability (kinase inhibitor library screening),[4]; 1μΜ,106.4%
same,cell viability (kinase inhibitor library screening),[5]; 1μΜ,99.3%
same,cell viability (kinase inhibitor library screening),[5]; 10μΜ,97.8%
same,cell viability (kinase inhibitor library screening),"[6]; 501Mel GP, 1μΜ",106.0%
same,cell viability (kinase inhibitor library screening),"[6]; 501Mel GP, 10μΜ",93.9%
same,cell viability (kinase inhibitor library screening),[7]; 1μΜ,99.0%
same,cell viability (kinase inhibitor library screening),[7]; 10μΜ,80.3%
same,cell viability (kinase inhibitor library screening),[8]; 1μΜ,106.4%
same,cell viability (kinase inhibitor library screening),[8]; 10μΜ,82.4%
same,cell viability (kinase inhibitor library screening),[9]; 1μΜ,99.9%
same,cell viability (kinase inhibitor library screening),[9]; 10μΜ,102.9%
